Results on 90 compounds are retold here after a melting point compilation (Tetko et al.; mined from patent text by program, amines drawn as free bases though some values may be those of a salt).

In the case of `CS(=O)(=O)C(=C1CN(C(c2ccccc2)c2ccccc2)C1)c1ccccc1`, the melting point is 210 °C.
The same measure for `O=c1[nH]c2ccccc2n1-c1ccc(Cl)cc1Cl`: 213 to 216 °C.
`C#CC[C@H](c1nc2cc(Cl)ccc2c(=O)n1Nc1ccccc1)N(CCCN)C(=O)c1cc(F)c(F)c(F)c1F`: the melting point is 155 to 158 °C.
The same measure for `C=CCCc1sc(-c2nccs2)c2c1C(=O)CC(C)(C)C2`: 62 to 65 °C; for `CCCCOc1ccc(-c2nc(Cl)c(C=O)[nH]2)cc1`: 74 °C.
In the case of `CON=C(C(C)=NN)c1ccccc1`, the melting point was found to be 132 °C.
In turn, `CCn1c(COCc2ccc(OC)cc2)nc(C(C)C)c1Sc1cc(Cl)cc(Cl)c1` displayed a melting point of 120 to 121 °C.
Turning to `COc1cc2[nH]c(C)c(C(=O)C(=O)N3CCC(C(=O)c4ccccc4)CC3)c2cc1OC`, the melting point fell in the range of 188 to 190 °C.
Consider `CCCCCCc1ccc(C(=O)O)cc1[N+](=O)[O-]`, for which the melting point was 106 to 108 °C.
For `c1ccc(-c2nc(-c3ccc(CN4CCCCCC4)s3)n[nH]2)nc1`, the melting point lay within 160 to 162 °C.
The compound `CN(C)C(=S)n1c(SC(F)(F)C(F)F)nc(-c2ccccc2)c1-c1ccccc1` gave a melting point of 133 to 134 °C.
With `CC1CC(C)CN(C(=O)C2Cc3ccccc3N2C(=O)OC(C)(C)C)C1` (stereo not given), the melting point lay in the range of 148 to 149 °C.
In the case of `CC(C)(C)OC(=O)N1C[C@@H]2C[C@H]1C(=O)N2C(C)(C)C`, the melting point lay in the range of 167 to 168 °C.
The result for `O=c1ccc(-c2c(-c3ccccc3)nn3ccccc23)nn1C1CCCCC1=NO` (stereo not given) reads 238 to 240 °C.
As to `FC(F)(F)c1cccc(C2=CCN(CCc3ccc4[nH]ccc4c3)CC2)c1`, the melting point is 122 to 123 °C.
`O=C(COc1ccc(C(=O)OCc2ccccc2)cc1)NN=C1C(=O)Nc2ccc(I)cc21` showed a melting point of 221 °C.
The compound `O=C(c1cc(-c2ccccc2)c(=O)n2c1-c1ccccc1C2)N1CCSCC1` showed a melting point of 266 to 268 °C.
`CS(=O)(=O)c1ccc(-n2nc(C(F)(F)F)cc2-c2ccc(-c3cc4ccccc4o3)cc2)cc1` displayed a melting point of 137 to 138 °C.
In turn, `O=C1c2cccc(NC(=S)Nc3cccc(Br)n3)c2C2CCCCN12` (stereo not given) showed a melting point of 195 °C.
For `Cc1cc2c(c(C3=NNC(=O)CC3)c1)OCC(=O)N2`, the melting point fell in the range of 266 to 270 °C.
The same measure for `C=CC(=O)Oc1c(C(C)c2cc(C(C)(C)C)cc(C(C)(C)C)c2O)cc(C(C)(C)C)cc1C(C)(C)C` (stereo not given): 190 to 192 °C; for `CC(CC1CCCCC1)C(=O)COS(=O)(=O)c1ccccc1` (stereo not given): 51 to 52 °C.
The compound `N#CN=C(NCNC(=O)c1ccc(Cl)cc1)Nc1cccnc1` had a melting point of 196 to 197 °C.
With `CCCCCCn1c(=O)n(C)c(=O)c2cnn(C)c21`, the melting point fell in the range of 106 to 107 °C.
The result for `COc1ccc(-c2ccnc(-c3ccccc3)c2)cc1F` reads 84 °C.
The result for `NC(=O)C1N=C(c2ccccc2)c2cc(Cl)ccc2NC1=O` (stereo not given) reads 255 to 256 °C.
Turning to `CN1C(=O)Cc2c(sc3ccccc23)S1(=O)=O`, the melting point lay within 175 to 178 °C.
In the case of `O=C(O)n1ccc2c(OCc3ccccc3)c(Cc3ccccc3)ccc21`, the melting point was in the range of 181 to 183 °C.
The same measure for `O=C(CCCN1CCN(c2ccccc2Cl)CC1)N1CCc2ccccc21`: 119 to 121 °C.
The result for `CCCN(CCC)S(=O)(=O)c1ccc(C(CC2CCCC2)C(=O)Nc2nc3ccc(OC)nc3s2)cc1` (stereo not given) reads 64 to 66 °C.
The same measure for `Cc1cc(-c2ccc(C#N)cc2)cn2cc(-c3ccc(C#N)cc3)nc12`: 283 to 285 °C; for `Nc1ccc2ccc(-c3cccc(F)c3)nc2n1`: 160 °C; for `COC(=O)[C@H](CC(C)C)NC(=O)[C@@H]1CSC(=O)N1`: 125 to 126 °C.
`CC(C)(C)N(N)C(=O)c1ccccc1` returned a melting point of 124 to 125 °C.
The same measure for `O=C(c1ccccc1O)N1CC2CCC(C1)O2`: 155 to 157 °C; for `CC(C)(C)OC(=O)NN=C1C2CC3CC(C2)CC1C3`: 175 to 177 °C; for `CCS(=O)(=O)CCC(=O)NNC(=O)N1Cc2ccccc2Oc2ccc(C)cc21`: 167 to 169 °C.
The result for `CCCSc1ncc(CC(Cc2ccccc2)C(=O)O)n1Cc1ccccc1Cl` (stereo not given) reads 123 to 127 °C; that for `CC(=O)c1c(-c2ccccc2)oc(-c2ccncc2)c1C`, 108 to 110 °C; that for `CC1=CC(O)C(O)C(C)(C)CC1OC(=O)c1ccccc1` (stereo not given), 94 to 96 °C.
On to `c1ccc2cc(OCCCCCCCCOc3ccc4ccccc4c3)ccc2c1`, for which the melting point lay within 125 to 126 °C.
The result for `Cc1ccccc1C(Oc1cc(OCc2ccsc2)ccc1C#N)C(=O)O` (racemic) reads 146 to 148 °C; that for `NS(=O)(=O)c1ccc(CCNC(=O)c2nc(-c3ccccc3)no2)cc1`, 217 to 218 °C.
The same measure for `O=C1c2ccncc2C(=O)c2c(F)ccc(F)c21`: 197 to 199 °C; for `COCOCc1ccc(C2Cn3cc(C(=O)NCc4ccc(Cl)cc4)c(=O)c4cc(CN5CCOCC5)cc(c43)O2)cc1` (stereo not given): 236 to 239 °C.
The same measure for `CCn1nc(Cc2ccc(NC(=O)/C=C/c3cnn(C)c3-c3ccc(F)cc3)cc2)oc1=O`: 149 to 150 °C; for `CCOC(=O)Cc1sc(Sc2cccc(C(=O)OCC)n2)nc1C`: 73 to 75 °C.
For the compound `COc1ccc(N2CCN(c3ccc(NC(=O)NN)nc3)CC2)cc1`, the melting point lay within 260 to 263 °C.
The result for `CCOC(=O)c1cn(C2CC2)c2cc(Br)c(F)c(C)c2c1=O` reads 195 to 197 °C; that for `COc1ccc(Br)cc1N(C=NCl)C1CC1`, 185 °C.
The same measure for `Nc1cc(CNc2ccccc2C(=O)Nc2cccc(C(F)(F)F)c2)ccn1`: 64 °C.
The compound `Cc1cc(OS(=O)(=O)C(F)(F)F)cc(=O)n1C` returned a melting point of 65 to 67 °C.
`OCCc1c[nH]c2ccc(O)cc12` gave a melting point of 98 to 102 °C.
`Cc1ccc(-c2ccc3cc4c(cc3c2)C(C)(C)CCC4(C)C)cc1` yielded a melting point of 91 to 92 °C.
Turning to `c1cc(CSSc2nc3ccccc3s2)cc(CSSc2nc3ccccc3s2)c1`, the melting point fell in the range of 94 to 96 °C.
The result for `CCC(CC)c1nn(-c2ccc(C(F)(F)F)cn2)cc1CCCOc1c(CC(=O)O)cccc1OC` reads 100 to 101 °C; that for `Cc1nccn1-c1ccc(-c2cnc([C@H](Cc3ccccn3)N(C=O)c3cc4cc(Cl)ccc4o3)n2C)cc1`, 159 to 161 °C.
The result for `CCOC(=O)C1=C(C)NC2=C(C(=O)OC2)C1c1ccccc1[N+](=O)[O-]` (stereo not given) reads 220 to 222 °C; that for `O=C(Nc1cccc2c(Sc3ncc[nH]3)c(Br)cnc12)c1c(Cl)cccc1Cl`, 249 to 251 °C; that for `CCCCCCCCCCCC(=O)Oc1ccc2nc(S(N)(=O)=O)sc2c1`, 112 to 114 °C.
Take `O=C(O)c1ccc(OCCc2c(CCNS(=O)(=O)Cc3ccccc3Cl)n(C(c3ccccc3)c3ccccc3)c3ccc(Cl)cc23)cc1F`: the melting point was in the range of 132 to 135 °C.
As for `CCOC(=O)c1cnc2onc(C)c2c1N(C)S(=O)(=O)c1ccc(Oc2ccncc2)cc1`, the melting point is 155 to 157 °C.
Take `CN(C)c1ccc(/C=C/c2ccccc2F)cc1`: the melting point was 124 to 126 °C.
The result for `Cc1nc(-c2ccc(OC(C)C)cc2)sc1C(=O)O` reads 186 to 188 °C; that for `Cc1cc(C(=O)NCO)ncc1C(c1c(F)ccc(F)c1F)S(=O)(=O)CCC(C)(F)F` (stereo not given), 161 to 162 °C.
The same measure for `O=C(O)c1cnc(C(=O)O)c2ccccc12`: 216 °C; for `C=CCOc1ccc(CCC(=O)O)cc1`: 88 to 89 °C; for `COC(=O)C=Cc1ccc(OCCCCl)cc1`: 58 to 59 °C.
Consider `CC(C)C(=O)NCCCCN1CCN(c2csc3cc(F)ccc23)CC1`, for which the melting point was 130 to 131 °C.
The result for `Cc1cc(C)c(C(O)c2ccc(C(C)C)cc2)c(O)c1` (stereo not given) reads 103 to 104 °C; that for `CN1CCCCC1=NC(=O)Nc1ccccc1`, 145 to 158 °C; that for `CCc1nn2c(-c3ccc(Cl)cc3Cl)cnnc2c1C(CC)CC`, 117 to 118 °C.
Compound `Cc1cc(C)c(NC(=O)CCCCCl)c(Cl)c1` displayed a melting point of 80.6 to 82.9 °C.
The same measure for `CCOC(=O)Nc1ncc(-c2nc3ccccc3c(=O)n2-c2ccc(OC)cc2)s1`: 222 to 224 °C; for `CSc1ccc(-c2nnc(Cl)cc2-c2ccc(Cl)cc2)cc1`: 145 to 146 °C.
`CC(C)C(c1cncnc1C(F)(F)F)N(C)C(=O)Cc1ccccn1` (stereo not given) yielded a melting point of 99 to 100 °C.
As for `CSc1noc(-c2ccc(OCCCOc3ccccc3)cc2)c1C#N`, the melting point was in the range of 121 to 123 °C.
`COC(=O)c1cc(-c2cccc(C(=O)O)c2)c2cc(Cc3ccc(F)cc3)cnc2c1O` had a melting point of 265 to 267 °C.
The same measure for `Cc1cc2c(cc1O)C(C)(C)CC(C)(c1cc(O)c(C)cc1O)O2` (stereo not given): 190 °C; for `O=C(O)COc1c(Br)cc(C(=O)c2ccc3ccccc3c2)cc1Br`: 188 to 189 °C; for `CCSc1c(C)nn(-c2c(Cl)cc(C(F)(F)F)cc2Cl)c1N`: 117 °C.
Consider `COc1nc(C)c([N+](=O)[O-])cc1C`, for which the melting point was in the range of 85.9 to 90.5 °C.
`CCCCCCC#CCC#CCC#CCCCCCCC(=O)O` showed a melting point of 57 to 58 °C.
The same measure for `COc1ccc(C=C(C#N)C#N)cc1OC`: 108 °C.
The same measure for `C=CC[C@H](CC(=O)OC(C)(C)C)C(=O)N[C@H](C(=O)OCc1ccccc1)C(C)(C)C`: 55 to 57 °C; for `O=C(NCCN1CCC(C(=O)c2ccc(F)cc2)CC1)c1cccnc1`: 118 °C.
With `CC(CCCC(C)(C)O)C1CCC2C3CC=C4CCCC(O)C4(C)C3CCC12C` (stereo not given), the melting point was 127 to 128 °C.
The result for `COCc1ncc(C(=O)OC)n1C` reads 74 to 77 °C; that for `Nc1ccc(OCc2ccccn2)nn1`, 114 to 115 °C; that for `CN1C(=O)CCC(C)(C)c2cc(Nc3ncc(Cl)c(N[C@@H]4CCCC[C@H]4NS(C)(=O)=O)n3)ccc21`, 165 °C.

By melting point is commonly meant the temperature of the solid-liquid transition.
